Test results as given in patent publication US20260070945A1, “MACROCYCLIC IMMUNOMODULATORS” (Bristol-Myers Squibb Company, priority 2022, published 2026).
*1 amine or outer side, *2 acyl side, *3 side chain or, on linkers, in order; H or OH if unused. Where a SMILES comes first, the peptide text is derived from it. Bridges are numbered along the chain shown (N, C = ends). [ ]: non-standard residue; d: D form. The star is where a group is joined. ξ: configuration not given here. Phe(3-CF3) = N[C@@H](Cc1cccc(C(F)(F)F)c1)C(=O)O; Phe(4-CF3) = N[C@@H](Cc1ccc(C(F)(F)F)cc1)C(=O)O; Phe(4-COOH) = N[C@@H](Cc1ccc(C(=O)O)cc1)C(=O)O; Bip = N[C@@H](Cc1ccc(-c2ccccc2)cc1)C(=O)O; NH(CH2)14COOH = O=C(O)CCCCCCCCCCCCCCN*; Phe(3-Me) = Cc1cccc(C[C@H](N)C(=O)O)c1; γGlu = O=C(O)[C@H](CCC(=O)[*:2])N[*:1]; NH(CH2)12COOH = O=C(O)CCCCCCCCCCCCN*; NMeAEEA = CN(CCOCCOCC(=O)[*:2])[*:1]; Val(3-OH) = CC(C)(O)[C@H](N)C(=O)O; aIle = CC[C@@H](C)[C@H](N)C(=O)O; 4Pal = N[C@@H](Cc1ccncc1)C(=O)O; Cha = N[C@@H](CC1CCCCC1)C(=O)O; Ile(3ξ) = CCC(C)[C@H](N)C(=O)O; Thr(3ξ) = CC(O)[C@H](N)C(=O)O; 12Ado = NCCCCCCCCCCCC(=O)O; Carboxymethyl = O=C(O)C*; NMeA = CN[C@@H](C)C(=O)O; Orn = NCCC[C@H](N)C(=O)O; Aun = NCCCCCCCCCCC(=O)O; Dab = NCC[C@H](N)C(=O)O; Dap = NC[C@H](N)C(=O)O; AEEA = NCCOCCOCC(=O)O; Sar = CNCC(=O)O

Each molecule was assayed against T1, PD-1/PD-L1 interaction (PE-labeled human PD-L1-Ig binding to Jurkat cell line over-expressing human PD-1) (Homo sapiens, UniProt Q15116) (assay: Jurkat-PD-1 Cell Binding High-Content Screening Assay (CBA)). Conditions: Jurkat-hPD-1 cells, PE-labeled PD-L1-Ig 20 nM final; read-out: Jurkat HPD1 PDL1 IC50.
T1 construct: expressed in transfected cells; host or cells: Jurkat
T1 sequence (Q15116 25-288): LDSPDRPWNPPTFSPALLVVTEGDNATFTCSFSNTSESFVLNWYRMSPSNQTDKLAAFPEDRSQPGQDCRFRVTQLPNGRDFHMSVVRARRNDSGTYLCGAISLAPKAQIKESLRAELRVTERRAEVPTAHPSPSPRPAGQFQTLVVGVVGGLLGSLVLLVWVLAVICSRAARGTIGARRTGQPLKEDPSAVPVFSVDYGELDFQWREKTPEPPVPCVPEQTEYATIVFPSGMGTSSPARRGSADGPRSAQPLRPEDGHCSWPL
Outline: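 Compound is added first to the PD-1-expressing Jurkat cells and held 2 h at 37 °C in serum-containing DMEM. The fluorescent PD-L1 fusion follows at 20 nM final for 1 h. Fixed, Hoechst-stained cells are then imaged for bound label.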
Work on CCC(C)[C@@H]1NC(=O)[C@H](Cc2ccc(-c3ccccc3)cc2)NC(=O)[C@H](C(C)C)NC(=O)[C@H](Cc2c[nH]c3ccccc23)NC(=O)[C@H](CC(=O)O)NC(=O)[C@H](Cc2ccc(OCC(=O)O)cc2)NC(=O)[C@H](C(C)O)NC(=O)CSC[C@@H](C(=O)N[C@@H](CCCN)C(=O)N[C@@H](CO)C(=O)NCCCCCCCCCCCC(=O)O)NC(=O)[C@H](CCCN)NC(=O)[C@H](C(C)C)NC(=O)[C@H](CC2CCCCC2)NC(=O)[C@H](CCN)NC(=O)[C@@H](CC(C)C)NC(=O)[C@H](C)N(C)C1=O (stereo partly drawn) [Example 2408] ({CH2CO}-[Thr(3ξ)]Y(Carboxymethyl)DWV[Bip][Ile(3ξ)][NMeA][dL][Dab][Cha]V[Orn]C[Orn]S[12Ado]-OH; thioether N-14) yielded an IC50 of 228 nM.
Work on CC[C@@H](C)[C@@H]1NC(=O)[C@H](Cc2ccc(-c3ccccc3)cc2)NC(=O)[C@H](C(C)C)NC(=O)[C@H](Cc2c[nH]c3ccccc23)NC(=O)[C@H](CC(=O)O)NC(=O)[C@H](Cc2ccc(OCC(=O)O)cc2)NC(=O)[C@H](Cc2ccncc2)NC(=O)CSC[C@@H](C(=O)N[C@H](C)C(=O)NCCOCCOCC(=O)N[C@@H](CCC(=O)NCCOCCOCC(=O)N[C@@H](CCC(=O)NCCOCCOCC(=O)N[C@@H](CCCN)C(=O)NCCCCCCCCCCC(=O)O)C(=O)O)C(=O)O)NC(=O)[C@H](CO)NC(=O)[C@H](C(C)C)NC(=O)[C@H](CC2CCCCC2)NC(=O)[C@H](CC(N)=O)NC(=O)[C@@H](CC(C)C)NC(=O)[C@H](C)N(C)C1=O [Example 2016] ({CH2CO}-[4Pal]Y(Carboxymethyl)DWV[Bip][aIle][NMeA][dL]N[Cha]VSC[dA][AEEA][γGlu][AEEA][γGlu][AEEA][Orn][Aun]-OH; thioether N-14) yielded an IC50 of 38.8 nM.
Work on CC(=O)NCCCC[C@@H]1NC(=O)[C@H](C(C)C)NC(=O)[C@H](CC2CCCCC2)NC(=O)[C@H](CCN)NC(=O)[C@@H](CC(C)C)NC(=O)[C@H](C)N(C)C(=O)[C@H](Cc2ccc(O)cc2)NC(=O)[C@H](Cc2ccc(-c3ccccc3)cc2)NC(=O)[C@H](C(C)C)NC(=O)[C@H](Cc2cccc(C)c2)NC(=O)[C@H](CC(=O)O)NC(=O)[C@H](Cc2ccc(OCC(=O)O)cc2)NC(=O)[C@H](CCCNC(=N)N)NC(=O)CSC[C@@H](C(=O)N(C)CC(=O)NCCCCCCCCCCC(=O)O)NC1=O [Example 2273] ({CH2CO}-RY(Carboxymethyl)D[Phe(3-Me)]V[Bip]Y[NMeA][dL][Dab][Cha]VK(Ac)C[Sar][Aun]-OH; thioether N-14) yielded an IC50 of 321 nM.
Molecule Cc1cccc(C[C@@H]2NC(=O)[C@H](CC(=O)O)NC(=O)[C@H](Cc3ccc(OCC(=O)O)cc3)NC(=O)[C@H]([C@@H](C)O)NC(=O)CSC[C@@H](C(=O)N[C@@H](CC(N)=O)C(=O)NCCOCCOCC(=O)NCCCCCCCCCCC(=O)O)NC(=O)[C@H](CCC(=O)O)NC(=O)[C@H](C(C)(C)O)NC(=O)[C@H](CC3CCCCC3)NC(=O)[C@H](CCN)NC(=O)[C@@H](CC(C)C)NC(=O)[C@H](C)N(C)C(=O)[C@H](Cc3ccc(OCC(=O)O)cc3)NC(=O)[C@H](Cc3ccc(-c4ccccc4)cc3)NC(=O)[C@H](Cc3ccc(OCC(=O)O)cc3)NC2=O)c1 [Example 1415] ({CH2CO}-TY(Carboxymethyl)D[Phe(3-Me)]Y(Carboxymethyl)[Bip]Y(Carboxymethyl)[NMeA][dL][Dab][Cha][Val(3-OH)]ECN[AEEA][Aun]-OH; thioether N-14) has an IC50 of 172 nM.
For Cc1cccc(C[C@@H]2NC(=O)[C@H](CC(=O)O)NC(=O)[C@H](Cc3ccc(OCC(=O)O)cc3)NC(=O)[C@H](C(C)O)NC(=O)CSC[C@@H](C(=O)N[C@@H](CCN)C(=O)NCCCCCCCCCCC(=O)O)NC(=O)[C@H](C(C)O)NC(=O)[C@H](C(C)C)NC(=O)[C@H](CC3CCCCC3)NC(=O)[C@H](CCN)NC(=O)[C@@H](CC(C)C)NC(=O)[C@H](C)N(C)C(=O)[C@H](Cc3ccc(OCC(=O)O)cc3)NC(=O)[C@H](Cc3ccc(-c4ccccc4)cc3)NC(=O)[C@H](C(C)C)NC2=O)c1 (stereo partly drawn) [Example 2309] ({CH2CO}-[Thr(3ξ)]Y(Carboxymethyl)D[Phe(3-Me)]V[Bip]Y(Carboxymethyl)[NMeA][dL][Dab][Cha]V[Thr(3ξ)]C[Dab][Aun]-OH; thioether N-14), the IC50 was 27.9 nM.
Cc1cccc(C[C@@H]2NC(=O)[C@H](CC(=O)O)NC(=O)[C@H](Cc3ccc(C(=O)O)cc3)NC(=O)[C@H](Cc3ccncc3)NC(=O)CSC[C@@H](C(=O)N[C@@H](CCN)C(=O)NCCCCCCCCCCC(=O)O)NC(=O)[C@H](CO)NC(=O)[C@H](C(C)(C)O)NC(=O)[C@H](CC3CCCCC3)NC(=O)[C@H](CCN)NC(=O)[C@@H](CC(C)C)NC(=O)[C@H](C)N(C)C(=O)[C@H](Cc3ccc(OCC(=O)O)cc3)NC(=O)[C@H](Cc3ccc(-c4ccccc4)cc3)NC(=O)[C@H](Cc3ccc(OCC(=O)O)cc3)NC2=O)c1 [Example 1282] ({CH2CO}-[4Pal][Phe(4-COOH)]D[Phe(3-Me)]Y(Carboxymethyl)[Bip]Y(Carboxymethyl)[NMeA][dL][Dab][Cha][Val(3-OH)]SC[Dab][Aun]-OH; thioether N-14) showed an IC50 of 7.2 nM.
In the case of CC(C)C[C@H]1NC(=O)[C@H](C)N(C)C(=O)[C@H](Cc2ccc(OCC(=O)O)cc2)NC(=O)[C@H](Cc2ccc(-c3ccccc3)cc2)NC(=O)[C@H](Cc2ccc(OCC(=O)O)cc2)NC(=O)[C@H](Cc2c[nH]c3ccccc23)NC(=O)[C@H](CC(=O)O)NC(=O)[C@H](Cc2ccc(OCC(=O)O)cc2)NC(=O)[C@H]([C@@H](C)O)NC(=O)CSC[C@@H](C(=O)N[C@@H](CCN)C(=O)NCCOCCOCC(=O)NCCCCCCCCCCC(=O)O)NC(=O)[C@H]([C@@H](C)O)NC(=O)[C@H](C(C)C)NC(=O)[C@H](CC2CCCCC2)NC(=O)[C@H](CC(N)=O)NC1=O [Example 1383] ({CH2CO}-TY(Carboxymethyl)DWY(Carboxymethyl)[Bip]Y(Carboxymethyl)[NMeA][dL]N[Cha]VTC[Dab][AEEA][Aun]-OH; thioether N-14), the IC50 is reported as 101 nM.
CC(=O)NCCCC[C@@H]1NC(=O)[C@H](Cc2ccc(-c3ccccc3)cc2)NC(=O)[C@H](C(C)C)NC(=O)[C@H](Cc2cccc(C)c2)NC(=O)[C@H](CC(=O)O)NC(=O)[C@H](Cc2ccc(OCC(=O)O)cc2)NC(=O)[C@H](CN)NC(=O)CSC[C@@H](C(=O)N(C)CCOCCOCC(=O)NCCCCCCCCCCC(=O)O)NC(=O)[C@H](CCCN)NC(=O)[C@H](C(C)C)NC(=O)[C@H](CC2CCCCC2)NC(=O)[C@H](CCN)NC(=O)[C@@H](CC(C)C)NC(=O)[C@H](C)N(C)C1=O [Example 2415] ({CH2CO}-[Dap]Y(Carboxymethyl)D[Phe(3-Me)]V[Bip]K(Ac)[NMeA][dL][Dab][Cha]V[Orn]C[NMeAEEA][Aun]-OH; thioether N-14) gave an IC50 of 41.2 nM.

Same assay, conditions: PE-labeled PD-L1-Ig 20 nM final, Jurkat-hPD-1 cells; read-out: Jurkat HPD1 PDL1 IC50
With CC(=O)NCCCC[C@@H]1NC(=O)[C@H](C(C)(C)O)NC(=O)[C@H](CC2CCCCC2)NC(=O)[C@H](CCN)NC(=O)[C@@H](CC(C)C)NC(=O)[C@H](C)N(C)C(=O)[C@H](Cc2ccc(C(F)(F)F)cc2)NC(=O)[C@H](Cc2ccc(-c3ccccc3)cc2)NC(=O)[C@H](Cc2ccc(C(=O)O)cc2)NC(=O)[C@H](Cc2cccc(C)c2)NC(=O)[C@H](CC(=O)O)NC(=O)[C@H](Cc2ccc(OCC(=O)O)cc2)NC(=O)[C@H](Cc2ccc(OCC(=O)O)cc2)NC(=O)CSC[C@@H](C(=O)N[C@@H](CCN)C(=O)NCCOCCOCC(=O)NCCCCCCCCCCC(=O)O)NC1=O [Example 2594] ({CH2CO}-Y(Carboxymethyl)Y(Carboxymethyl)D[Phe(3-Me)][Phe(4-COOH)][Bip][Phe(4-CF3)][NMeA][dL][Dab][Cha][Val(3-OH)]K(Ac)C[Dab][AEEA][Aun]-OH; thioether N-14) the IC50 was 5.7 nM.
CCC(C)[C@@H]1NC(=O)[C@H](Cc2ccc(-c3ccccc3)cc2)NC(=O)[C@H](C(C)C)NC(=O)[C@H](Cc2c[nH]c3ccccc23)NC(=O)[C@H](CC(=O)O)NC(=O)[C@H](Cc2ccc(C(=O)O)cc2)NC(=O)[C@H](Cc2ccc(OCC(=O)O)cc2)NC(=O)CSC[C@@H](C(=O)N[C@@H](CCN)C(=O)NCCOCCOCC(=O)NCCCCCCCCCCC(=O)O)NC(=O)[C@H](C(C)O)NC(=O)[C@H](C(C)(C)O)NC(=O)[C@H](CC2CCCCC2)NC(=O)[C@H](Cc2cnc[nH]2)NC(=O)[C@@H](CC(C)C)NC(=O)[C@H](C)N(C)C1=O (stereo partly drawn) [Example 2522] ({CH2CO}-Y(Carboxymethyl)[Phe(4-COOH)]DWV[Bip][Ile(3ξ)][NMeA][dL]H[Cha][Val(3-OH)][Thr(3ξ)]C[Dab][AEEA][Aun]-OH; thioether N-14) gave an IC50 of 25.7 nM.
For CC(C)C[C@H]1NC(=O)[C@H](C)N(C)C(=O)[C@H](Cc2ccc(C(=O)O)cc2)NC(=O)[C@H](Cc2ccc(-c3ccccc3)cc2)NC(=O)[C@H](Cc2ccc(C(=O)O)cc2)NC(=O)[C@H](Cc2cccc(C(F)(F)F)c2)NC(=O)[C@H](CC(=O)O)NC(=O)[C@H](Cc2ccc(C(=O)O)cc2)NC(=O)[C@H](C(C)O)NC(=O)CSC[C@@H](C(=O)N[C@@H](CCN)C(=O)NCCOCCOCC(=O)NCCOCCOCC(=O)NCCCCCCCCCCCCCCC(=O)O)NC(=O)[C@H](CC(=O)O)NC(=O)[C@H](C(C)C)NC(=O)[C@H](CC2CCCCC2)NC(=O)[C@H](CCN)NC1=O (stereo partly drawn) [Example 2616] ({CH2CO}-[Thr(3ξ)][Phe(4-COOH)]D[Phe(3-CF3)][Phe(4-COOH)][Bip][Phe(4-COOH)][NMeA][dL][Dab][Cha]VDC[Dab][AEEA][AEEA]-{NH(CH2)14COOH}; thioether N-14), the IC50 was 427 nM.
For CC(C)C[C@H]1NC(=O)[C@H](C)N(C)C(=O)[C@H](Cc2ccc(C(=O)O)cc2)NC(=O)[C@H](Cc2ccc(-c3ccccc3)cc2)NC(=O)[C@H](Cc2ccc(C(=O)O)cc2)NC(=O)[C@H](Cc2cccc(C(F)(F)F)c2)NC(=O)[C@H](CC(=O)O)NC(=O)[C@H](Cc2ccc(C(=O)O)cc2)NC(=O)[C@H](C(C)O)NC(=O)CSC[C@@H](C(=O)N[C@@H](CCN)C(=O)NCCOCCOCC(=O)NCCCCCCCCCCCCC(=O)O)NC(=O)[C@H](CC(=O)O)NC(=O)[C@H](C(C)C)NC(=O)[C@H](CC2CCCCC2)NC(=O)[C@H](CCN)NC1=O (stereo partly drawn) [Example 2612] ({CH2CO}-[Thr(3ξ)][Phe(4-COOH)]D[Phe(3-CF3)][Phe(4-COOH)][Bip][Phe(4-COOH)][NMeA][dL][Dab][Cha]VDC[Dab][AEEA]-{NH(CH2)12COOH}; thioether N-14), the IC50 was 62.9 nM.
